From US20160115540A1, “PRODRUGS AND DRUGS” (Biogen MA Inc., priority 2013, published 2016)
Structures can show the parent of a compound that is named as a salt.

System: liver
Experiment: Transcriptional profiling on Affymetrix GeneChips, single dose, naïve mice: liver
Type: in vivo, C57BL/6 mice
Conditions: for Number of differentially expressed genes identified: Liver: Naïve, Single Dose
Experimental: Treated mice were sacrificed at 2, 7, or 12 hours. Tissues (liver, spleen, kidney, jejunum, cortex, hippocampus, striatum and whole blood) were collected and analyzed by transcriptional profiling on mouse Affymetrix GeneChips.
Tissues (liver, spleen, kidney, jejunum, cortex, hippocampus, striatum and whole blood) were collected and analyzed by transcriptional profiling on mouse Affymetrix GeneChips.
Animals were exposed to CO2 and whole blood collected via cardiac puncture. Two 100 μl aliquots of whole blood were collected in 1.5 mL microcentrifuge tubes and snap frozen in liquid nitrogen. Peripheral (liver, spleen, kidney and jejunum) and CNS brain (cerebellum, hippocampus, striatum and cortex) tissues were harvested and snap frozen in liquid nitrogen, with special care taken to collect tissues of similar size and from the same location. All samples were stored at −80° C. until RNA extraction was conducted.
For RNA preparation, frozen tissues were placed in 2 mL RNAse-free 96-well blocks with 1.5 mL QIAzol Lysis Reagent (QIAgen) and a 3.2 mm stainless steel bead (BioSpec Products, Bartlesville, Okla.). Tissues were disrupted for four cycles of 45 seconds in a Mini-Beadbeater (Biospec Products). RNA was extracted in chloroform and the aqueous phase was mixed with an equal volume of 70% ethanol. Extracted RNA was applied to RNeasy 96 plates and purified by the spin method according to the manufacturer's protocol (RNeasy 96 Universal Tissue Protocol, QIAgen, Hilden Germany).
Automated sample amplifications and biotin labelings were carried out using the NuGEN Ovation RNA Amplification system V2 (Cat #3100), Ovation WB reagent (Cat #1300) and Encore Biotin module (Cat #4200) (NuGEN Technologies, Inc, San Carlos, Calif.) according to manufacturer's recommendations using an Arrayplex automated liquid handler (Beckman Coulter, Indianapolis, Ind.). Two micrograms of biotin labeled sscDNA probe were hybridized to Affymetrix GeneChip Affymetrix HT_MG-430_PM plate arrays with modified conditions as described in Allaire et al. Washing and staining of the hybridized arrays were completed as described in the GeneChip Expression analysis technical manual for HT plate arrays using the Genechip® Array Station (Affymetrix, Santa Clara, Calif.) with modifications as described in Allaire et al. The processed GeneChip® plate arrays were scanned using GeneTitan scanner (Affymetrix, Santa Clara, Calif.).
Affymetrix scans were subject to quality control (QC) measures. These tests included a visual inspection of the distribution of raw signal intensities and an assessment of RNA degradation, relative log expression (RLE), and normalized unsealed standard error (NUSE). All sample scans that passed these QC metrics were included in the analysis.
All CEL files were subjected to GC-content-based Robust Multi-array Average (GCRMA) normalization (version 2.20.0) (Irizarry R A, et al. Nucleic Acids Res 2003; 31:e15; Li C, et al. Genome Biol 2001; 2:[…]0032). Expression levels were log (base 2) transformed.
All calculations and analyses were carried out using R (version 2.11.1) and Bioconductor computational tools (Gentleman R. Springer Science+Business Media 2005).

[1] = liver, 100 mg/kg, 2 hr, vs matched vehicle controls
[2] = liver, 100 mg/kg, 7 hr, vs matched vehicle controls

## COC(=O)/C=C/C(=O)OC [DMF, dimethyl fumarate]
100DMF-vs-100MMF, 12 h, probe 1417441_PM_at, naïve single dose, tissue section before SPLEEN
  FC Dnajc12 (DnaJ (Hsp40) homolog, subfamily C, member 12): −2.49
100DMF-vs-100MMF, 12 h, probe 1417507_PM_at, naïve single dose, tissue section before SPLEEN
  FC Cyb561 (cytochrome b-561): −2.02
100DMF-vs-100MMF, 12 h, probe 1419005_PM_at, naïve single dose, tissue section before SPLEEN
  FC Crybb3 (crystallin, beta B3): −1.69
100DMF-vs-100MMF, 12 h, probe 1446368_PM_at, naïve single dose, tissue section before SPLEEN
  FC 9130221J18Rik (RIKEN cDNA 9130221J18 gene): −1.93
LIVER, 100DMF-vs-100MMF, 7 h
  FC Tnfrsf19 (1448147_PM_at): 1.73
LIVER, 100DMF-vs-100MMF, 12 h
  FC Isyna1 (1415977_PM_at): −1.76
LIVER, 100DMF-vs-Veh, 2 h
  FC 1447411_PM_at (no gene symbol): 2.57
  FC 5430435G22Rik (1435830_PM_a_at): 1.79
  FC 9130221J17Rik (1443159_PM_at): 1.54
  FC Abcc1 (1452233_PM_at): 1.75
  FC Akr1b8 (1448894_PM_at): 2.18
  FC Clec4n (1419627_PM_s_at): 2.34
  FC Clec4d (1420804_PM_s_at): 2.30
  FC Figf (1438953_PM_at): 2.23
  FC Figf (1438954_PM_x_at): 1.90
  FC Figf (1449528_PM_at): 1.66
  FC Hmox1 1448239_PM_at: 2.37
  FC Pgd (1436771_PM_x_at): 1.59
  FC Pgd (1437380_PM_x_at): 1.61
  FC Ppfibp2 (1417801_PM_a_at): 2.38
  FC Srxn1 (1419942_PM_at): 1.69
  FC Srxn1 (1426875_PM_s_at): 1.64
  FC Srxn1 (1451680_PM_at): 1.59
LIVER, 100DMF-vs-Veh, 7 h
  FC Adora1 (1435495_PM_at): 1.50
  FC Akr1b8 (1448894_PM_at): 1.58
  FC Bmp6 (1450759_PM_at): 1.57
  FC Clec4n (1419627_PM_s_at): 2.01
  FC Nqo1 (1423627_PM_at): 1.81
LIVER, 100DMF-vs-Veh, 12 h
  FC Gstm4 (1424835_PM_at): 1.54
Liver
  Number of genes, DMF Only / MMF Only: 2
100 mpk DMF-vs-100 mpk MMF, 2 h after last dosing
  Number of differentially expressed genes identified: Liver: 0
100 mpk DMF-vs-100 mpk MMF, 7 h after last dosing
  Number of differentially expressed genes identified: Liver: 1
100 mpk DMF-vs-100 mpk MMF, 12 h after last dosing
  Number of differentially expressed genes identified: Liver: 5
100 mpk, vs Vehicle, 2 h after last dosing
  Number of differentially expressed genes identified: Liver: 18
100 mpk, vs Vehicle, 7 h after last dosing
  Number of differentially expressed genes identified: Liver: 5
100 mpk, vs Vehicle, 12 h after last dosing
  Number of differentially expressed genes identified: Liver: 1
[1]
  Murine Liver DEGs: Abcc1 (1452233_PM_at): 1.75
  Murine Liver DEGs: Akr1b8 (1448894_PM_at): 2.18
  Murine Liver DEGs: Clec4n (1419627_PM_s_at): 2.34
  Murine Liver DEGs: Clec4d (1420804_PM_s_at): 2.30
  Murine Liver DEGs: Figf (1438953_PM_at): 2.23
  Murine Liver DEGs: Hmox1 (1448239_PM_at): 2.37
  Murine Liver DEGs: Pgd (1436771_PM_x_at): 1.59
  Murine Liver DEGs: Ppfibp2 (1417801_PM_a_at): 2.38
  Murine Liver DEGs: Srxn1 (1419942_PM_at): 1.69
[2]
  Murine Liver DEGs: Adora1 (1435495_PM_at): 1.50
  Murine Liver DEGs: Akr1b8 (1448894_PM_at): 1.58
  Murine Liver DEGs: Bmp6 (1450759_PM_at): 1.57
  Murine Liver DEGs: Clec4n (1419627_PM_s_at): 2.01
  Murine Liver DEGs: Nqo1 (1423627_PM_at): 1.81
liver, 100 mg/kg, 12 hr, vs matched vehicle controls
  Murine Liver DEGs: Gstm4 (1424835_PM_at): 1.12
liver, 2 hr
  Abcc1 (probe set 1452233_PM_at) differential expression: 1.75
  Akr1b8 (probe set 1448894_PM_at) differential expression: 2.18
  Clec4n (probe set 1419627_PM_s_at) differential expression: 2.34
  Clec4d (probe set 1420804_PM_s_at) differential expression: 2.30
  Figf (probe set 1438953_PM_at) differential expression: 2.23
  Hmox1 (probe set 1448239_PM_at) differential expression: 2.37
  Pgd (probe set 1436771_PM_x_at) differential expression: 1.59
  Ppfibp2 (probe set 1417801_PM_a_at) differential expression: 2.38
  Srxn1 (probe set 1419942_PM_at) differential expression: 1.69
liver, 7 hr
  Adora1 (probe set 1435495_PM_at) differential expression: 1.50
  Akr1b8 (probe set 1448894_PM_at) differential expression: 1.58
  Bmp6 (probe set 1450759_PM_at) differential expression: 1.57
  Clec4n (probe set 1419627_PM_s_at) differential expression: 2.01
  Nqo1 (probe set 1423627_PM_at) differential expression: 1.81
liver, 12 hr
  Gstm4 (probe set 1424835_PM_at) differential expression: 1.12
